Data published in publication PMC9072246 (Acta Pharmaceutica Sinica. B, 2021).
Counter-ions that a name gives are not always drawn.

Columns and labels:
[1] = In vitro drug release by dialysis method; assay type: physicochemical; conditions: pH 7.4 PBS, after 3 h
[2] = In vivo pharmacokinetic after oral administration; parameters: species or system SD rats
[3] = Drug absorption in rat small intestine; assay type: in vivo; conditions: SD rats, intragastric 5 mg/kg DOX equivalent, 2 h, CLSM

COc1cccc2c1C(=O)c1c(O)c3c(c(O)c1C2=O)C[C@@](O)(C(=O)CO)C[C@@H]3O[C@H]1C[C@H](N)[C@H](O)[C@H](C)O1 [DOX, doxorubicin hydrochloride]
cumulative release amount of DOX [1]: 90%
Frel, relative bioavailability ([2]; SD rats, oral, 30 mg/kg DOX equivalent, relative to DOX): 100%
AUC ([2]; SD, rat, plasma, po, 30 mg/kg): 4000 ± 20 ng·h/mL
Cmax ([2]; SD, rat, plasma, po, 30 mg/kg): 160 ± 10 ng/mL
MRT ([2]; SD, rat, plasma, po, 30 mg/kg): 24.6 ± 0.34 h
Tmax ([2]; SD, rat, plasma, po, 30 mg/kg): 1 h
concentration at 1 h ([2]; SD, rat, plasma, po, 30 mg/kg): 160 ng/mL
concentration at 8 h ([2]; SD, rat, plasma, po, 30 mg/kg): 130 ng/mL
half-life ([2]; SD, rat, plasma, po, 30 mg/kg): 12.6 ± 0.58 h
DOX fluorescence signal in small intestine tissue [3]: almost no red fluorescence signal
